# Target: T1, medaka Esr1 (mEsr1) (Oryzias latipes, UniProt P50241)
# T1 construct: expressed in transfected cells; host or cells: HEK293 (human embryonic kidney cells), transient transfection with FuGENE HD
# T1 sequence (P50241 1-620): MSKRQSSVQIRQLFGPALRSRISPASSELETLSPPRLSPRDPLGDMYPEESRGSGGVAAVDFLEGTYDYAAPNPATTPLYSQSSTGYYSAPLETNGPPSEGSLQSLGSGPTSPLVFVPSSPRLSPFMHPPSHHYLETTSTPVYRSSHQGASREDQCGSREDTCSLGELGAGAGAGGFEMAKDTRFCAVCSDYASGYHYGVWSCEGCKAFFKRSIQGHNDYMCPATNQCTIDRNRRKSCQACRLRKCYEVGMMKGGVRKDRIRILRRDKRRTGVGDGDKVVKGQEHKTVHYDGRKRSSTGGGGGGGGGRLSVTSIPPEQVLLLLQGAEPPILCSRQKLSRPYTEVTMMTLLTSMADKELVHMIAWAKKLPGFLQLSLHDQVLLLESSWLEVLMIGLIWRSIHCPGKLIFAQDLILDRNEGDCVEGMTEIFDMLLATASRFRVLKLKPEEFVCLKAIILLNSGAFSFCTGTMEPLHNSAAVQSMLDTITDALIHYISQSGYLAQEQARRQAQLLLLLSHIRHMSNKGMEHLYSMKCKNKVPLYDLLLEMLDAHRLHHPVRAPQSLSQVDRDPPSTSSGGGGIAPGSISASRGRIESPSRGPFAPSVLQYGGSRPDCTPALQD
# Experiment: Medaka Esr1 reporter gene assay (RGA), antagonist assay with 1 nM E2, HEK293 cells
# Type: cell-based, Japanese medaka (Oryzias latipes)
# Description: To support interpretation of the biological effects observed in the FSTRA studies, in vitro RGAs using medaka Esr1 (mEsr1) and medaka ARβ (mARβ) were performed for the 16 test chemicals. In the present study, Esr1 and ARβ, which are ancestral subtypes among Esrs and ARs in Japanese medaka, were selected based on the phylogenetical analyses of Esr and AR with each receptor RGAs (Ogino et al., [2016], [2018]; Tohyama et al., [2015]).
# The mEsr1 RGA consisting of agonist and antagonist assays were performed according to the methods previously reported (Katsu et al., [2010]; Lange et al., [2012]; Miyagawa et al., [2014]). Briefly, human embryonic kidney cells 293 (HEK293), precultured, were seeded in 96‐well plates at 15,000 cells/well with 200 μl of culture medium, phenol‐red‐free Dulbecco's Modified Eagle's medium (ThermoFisher Scientific K.K., Tokyo, Japan) supplemented with 2‐mM L‐glutamine and 10% charcoal/dextran‐treated fetal bovine serum (Hyclone, UT, USA), and then incubated for 24 h in 5% CO2 at 37°C. After the 24‐h incubation, 20 μl of test medium containing 40 ng of medaka Esr1/pcDNA3.1, 80 ng of ERE‐TK‐Luc, and 20 ng of pRL‐TK‐Rlu and 1.2 μL of transfection reagent FuGENE HD (Promega, WI, USA) were added into each well. The assay plates were incubated for another 4 h in order to transfect the three vectors into the HEK293 cells. After the vectors were successfully transfected, in agonist assay, 24 μl of concentrated test chemical solution was applied to the test medium in the plate wells. […] After chemical treatment for 40 h, luciferase activity of the cells was measured, and the promoter activity was calculated as firefly (Photinus pyralis)‐/sea pansy (Renilla reniformis)‐luciferase activity in each well. The luciferase activities were quantified by a chemiluminescence assay with Dual‐Luciferase Reporter Assay System (Promega) in accordance with the manufacturer's instructions, and luminescence intensity of firefly and sea pansy luciferin was measured using a luminometer, TriStar LB941 (Berthold Technology, Oak Ridge, TN, USA).
# Effect concentrations, that is, EC50 (a half maximal effective concentration) in the agonist assay and IC50 (a half maximal inhibitory concentration) in the antagonist assay, were estimated by nonlinear curve fitting (e.g., three parameters logistic regression curve) using GraphPad Prism (GraphPad Software Inc., La Jolla, CA, USA).
compound,measurement,value
"CC/C(=C(\c1ccc(O)cc1)c1ccc(OCCN(C)C)cc1)c1ccccc1 [4HTAM, 4‐hydroxytamoxifen]",IC50,0.52 nM

# From article PMC8359193, “Summary of reference chemicals evaluated by the fish short‐term reproduction assay, OECD TG229, using Japanese Medaka, Oryzias latipes” (Journal of Applied Toxicology, 2021)
